Results on one molecule are retold here after article PMC5218480 (PLoS ONE, 2017).

This assay has as its system MV-4-11 cells. Put plainly: Gene expression microarray analysis (Affymetrix PrimeView) and GSEA. In kind it is cell-based, human. As to conditions: gene FGFR1OP; ACY-1035 1 mM; LIST F.

The structures appear in SMILES notation.

In the case of `Nc1ccc(-c2cccs2)cc1NC(=O)c1ccc2c(c1)cc(C1CC1)n2CCN1CCOCC1` [ACY-1035], the “RFU, FGFR1OP (ProbeSet 11751329_s_at)” value was determined as 243.91 RFU.
